Biological target: T1, Dopamine beta hydroxylase (Homo sapiens, UniProt P09172)
T1 construct: 125 μl of plasma; tissue Instituto Português do Sangue Transplantação; host or cells: human plasma from healthy donors
T1 sequence (P09172 40-617 limits assumed): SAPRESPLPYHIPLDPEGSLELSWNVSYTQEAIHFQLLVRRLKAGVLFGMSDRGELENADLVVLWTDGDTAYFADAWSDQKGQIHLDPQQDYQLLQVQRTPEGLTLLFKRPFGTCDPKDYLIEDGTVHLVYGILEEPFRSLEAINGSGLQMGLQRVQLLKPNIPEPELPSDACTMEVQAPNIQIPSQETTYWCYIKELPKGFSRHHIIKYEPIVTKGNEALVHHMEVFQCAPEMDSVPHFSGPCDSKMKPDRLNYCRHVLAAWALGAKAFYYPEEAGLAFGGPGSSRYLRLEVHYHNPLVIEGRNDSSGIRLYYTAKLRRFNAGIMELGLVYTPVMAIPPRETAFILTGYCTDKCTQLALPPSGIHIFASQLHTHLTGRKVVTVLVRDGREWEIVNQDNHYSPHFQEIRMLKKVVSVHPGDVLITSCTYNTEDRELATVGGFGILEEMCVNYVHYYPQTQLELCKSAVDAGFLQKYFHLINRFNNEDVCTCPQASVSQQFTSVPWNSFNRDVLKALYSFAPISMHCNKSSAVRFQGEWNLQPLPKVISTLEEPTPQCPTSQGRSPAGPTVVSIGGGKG
Assay: Dopamine beta hydroxylase activity in human plasma
Type: biochemical
Details: for Plasma (0.01 μM), activity in % of control: inhibitor 0.01 μM; for Plasma (0.1 μM), activity in % of control: inhibitor 0.1 μM
Procedure, shortened: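 Octopamine production from tyramine over 45 min at 37° C, measured photometrically at 330 nm after SCX extraction and periodate oxidation against an octopamine standard curve, indicates plasma DβH activity. Compounds tested at final 10, 100 and 1000 nM in human plasma, pH 5.0 cofactor buffer, 10 min preincubation; results as % of control.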

Row | Plasma (0.01 μM), activity in % of control | Plasma (0.1 μM), activity in % of control | SMILES
1 | 110.2 % of control | 52.6 % of control | CN(C(=O)Cc1[nH]c(=S)n2c1C[C@H](c1c(F)c(F)cc(F)c1F)C2)C1CCOCC1 [Example 378, (R)—N-methyl-2-(6-(2,3,5,6-tetrafluorophenyl)-3-thioxo-2,5,6,7-tetrahydro-3H-pyrrolo[1,2-c]imidazol-1-yl)-N-(tetrahydro-2H-pyran-4-yl)acetamide]
2 | 108.7 % of control | 50.1 % of control | CN(C(=O)Cc1[nH]c(=S)n2c1C[C@H](c1c(F)ccc(F)c1F)C2)C1CCOCC1 [Example 379, (R)—N-methyl-2-(6-(2,3,6-trifluorophenyl)-3-thioxo-2,5,6,7-tetrahydro-3H-pyrrolo[1,2-c]imidazol-1-yl)-N-(tetrahydro-2H-pyran-4-yl)acetamide]
3 | 74.9 % of control | 27.4 % of control | CN(C(=O)Cc1[nH]c(=S)n2c1C[C@@H](c1c(F)ccc(Cl)c1F)C2)C1CCOCC1 [Example 380, (S)-2-(6-(3-chloro-2,6-difluorophenyl)-3-thioxo-2,5,6,7-tetrahydro-3H-pyrrolo[1,2-c]imidazol-1-yl)-N-methyl-N-(tetrahydro-2H-pyran-4-yl)acetamide]
4 | 30.0 % of control | 3.2 % of control | CN(C(=O)Cc1[nH]c(=S)n2c1[C@@H]1C[C@]1(c1c(F)ccc(Cl)c1F)C2)C1CCOCC1 [Example 381, 2-((5aS,6aR)-5a-(3-chloro-2,6-difluorophenyl)-3-thioxo-2,3,5,5a,6,6a-hexahydrocyclopropa[3,4]pyrrolo[1,2-c]imidazol-1-yl)-N-methyl-N-(tetrahydro-2H-pyran-4-yl)acetamide]

Further lines, the compound ahead of its results:

Row | SMILES | Plasma (0.01 μM), activity in % of control | Plasma (0.1 μM), activity in % of control
5 | CN(C(=O)Cc1c2n(c(=S)n1C)C[C@H](c1c(F)ccc(Cl)c1F)C2)C1CCOCC1 [Example 373, (S)-2-(6-(3-chloro-2,6-difluorophenyl)-2-methyl-3-thioxo-2,5,6,7-tetrahydro-3H-pyrrolo[1,2-c]imidazol-1-yl)-N-methyl-N-(tetrahydro-2H-pyran-4-yl)acetamide] | 66.1 % of control | 12.8 % of control
6 | CN(C(=O)Cc1c2n(c(=S)n1C)C[C@@H](c1c(F)ccc(F)c1F)C2)C1CCOC1 (stereo partly drawn) [Example 374, N-methyl-2-((R)-2-methyl-3-thioxo-6-(2,3,6-trifluorophenyl)-2,5,6,7-tetrahydro-3H-pyrrolo[1,2-c]imidazol-1-yl)-N-(tetrahydrofuran-3-yl)acetamide] | 97.4 % of control | 50.0 % of control
7 | CN(C(=O)Cc1c2n(c(=S)n1C)C[C@@H](c1c(F)c(F)cc(F)c1F)C2)C1CCOC1 (stereo partly drawn) [Example 375, N-methyl-2-((R)-2-methyl-6-(2,3,5,6-tetrafluorophenyl)-3-thioxo-2,5,6,7-tetrahydro-3H-pyrrolo[1,2-c]imidazol-1-yl)-N-(tetrahydrofuran-3-yl)acetamide] | 90.0 % of control | 40.7 % of control
8 | O=C(Cc1[nH]c(=S)n2c1C[C@H](c1c(F)ccc(F)c1F)C2)NC1CCOCC1 [Example 376, (R)—N-(tetrahydro-2H-pyran-4-yl)-2-(3-thioxo-6-(2,3,6-trifluorophenyl)-2,5,6,7-tetrahydro-3H-pyrrolo[1,2-c]imidazol-1-yl)acetamide] | 116.3 % of control | 59.3 % of control
9 | O=C(Cc1[nH]c(=S)n2c1C[C@H](c1c(F)c(F)cc(F)c1F)C2)NC1CCOCC1 [Example 377, (R)—N-(tetrahydro-2H-pyran-4-yl)-2-(3-thioxo-6-(2,3,5,6-tetrafluorophenyl)-2,5,6,7-tetrahydro-3H-pyrrolo[1,2-c]imidazol-1-yl)acetamide] | 102.0 % of control | 56.8 % of control

Source: patent publication US11434242B2, “Dopamine-b-hydroxylase inhibitors” (BIAL-PORTELA & Cª, S.A., priority 2017, dated 2022)
